Series [1] addresses T1, Prostaglandin G/H synthase 2 (Homo sapiens, UniProt P35354).
T1 sequence (P35354 whole entry): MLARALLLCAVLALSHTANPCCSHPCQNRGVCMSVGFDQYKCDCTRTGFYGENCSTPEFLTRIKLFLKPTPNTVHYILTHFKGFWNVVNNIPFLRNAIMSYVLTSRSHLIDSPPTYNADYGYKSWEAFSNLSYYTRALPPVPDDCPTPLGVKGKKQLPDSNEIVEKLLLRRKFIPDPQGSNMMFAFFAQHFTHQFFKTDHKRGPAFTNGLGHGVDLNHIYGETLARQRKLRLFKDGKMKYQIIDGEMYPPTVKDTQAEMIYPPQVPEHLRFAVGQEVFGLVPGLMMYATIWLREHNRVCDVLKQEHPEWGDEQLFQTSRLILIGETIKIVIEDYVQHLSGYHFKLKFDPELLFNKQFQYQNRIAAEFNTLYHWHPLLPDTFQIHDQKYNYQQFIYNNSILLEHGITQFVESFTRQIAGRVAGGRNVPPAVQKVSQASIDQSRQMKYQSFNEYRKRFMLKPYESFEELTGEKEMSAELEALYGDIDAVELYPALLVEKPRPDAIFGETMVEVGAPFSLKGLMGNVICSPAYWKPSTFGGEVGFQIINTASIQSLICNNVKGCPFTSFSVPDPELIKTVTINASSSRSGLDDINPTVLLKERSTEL
The series can be described thus: Inhibition of human recombinant COX2 expressed in Sf9 cells using arachidonic acid and ADHP incubated for 5 mins by fluorimetry.

A short description of series [2]: Solubility in water by HPLC/UV analysis. It counts as physicochemical.
Series [3] deals with Prostaglandin G/H synthase 1 (Homo sapiens, UniProt P23219). Kind of series: Inhibition of human recombinant COX1 expressed in Sf9 cells using arachidonic acid and ADHP incubated for 3 mins by fluorimetry.
The subject of series [4] is C6. Kind of series: Toxicity in rat C6 cells assessed as effect on cell proliferation at 300 uM incubated up to 3 days by LDH release assay. It counts as cell-based. The conditions noted are these: c6, 72 h, time <=3 day.
Series [5] relates to C6. Kind of series: Toxicity in rat C6 cells assessed as effect on cell viability up to 300 uM incubated for 72 hrs by LDH release assay. It counts as cell-based. The conditions noted are these: c6, 72 h. (In general: LDH in the medium is a marker of cell lysis.)
Series [6] deals with C6. Kind of series: Toxicity in rat C6 cells assessed as effect on cell morphology at 1000 uM incubated for 3 days. The conditions noted are these: c6, 72 h, time 3 day. In kind it is cell-based.
Series [7] deals with C6. The series can be described thus: Toxicity in rat C6 cells assessed as effect on extracellular lactate dehydrogenase activity at 1000 uM incubated for 3 days by LDH release assay. To be noted: c6, 72 h, time 3 day. It counts as cell-based.
Series [8] deals with C6. The series can be described thus: Toxicity in rat C6 cells assessed as effect on cellular protein per well up to 300 uM incubated for 72 hrs. It counts as cell-based. To be noted: c6, 72 h.
For series [9], the system named is C6. Kind of series: Toxicity in rat C6 cells assessed as effect on cellular viability up to 300 uM incubated for 72 hrs by WST1 assay. In kind it is cell-based. To be noted: c6, 72 h. On the technique in general: Formazan colour is commonly taken as a measure of viable cells.
The test system of series [10] is C6. Kind of series: Toxicity in rat C6 cells assessed as effect on cellular lactate production to 300 uM incubated for 72 hrs. It counts as cell-based. To be noted: c6, 72 h.
The test system of series [11] is C6. The series can be described thus: Toxicity in rat C6 cells assessed as reduction in cell proliferation at 1000 uM incubated up to 3 days by LDH release assay. It counts as cell-based. The conditions noted are these: c6, 72 h, time <=3 day.
In series [12] the test system is C6. The series can be described thus: Toxicity in rat C6 cells assessed as effect on cellular viability at 1000 uM incubated up to 3 days by WST1 assay. It counts as cell-based. The conditions noted are these: c6, 72 h, time <=3 day.
Series [13] relates to C6. Kind of series: Toxicity in rat C6 cells assessed as reduction in protein content at 1000 uM incubated up to 3 days. In kind it is cell-based. The conditions noted are these: c6, 72 h, time <= day.

Converted amounts (≈) assume the structure as drawn.

Broadly, the IC50 is the concentration at which inhibition is half-maximal. One may read the solubility as how much of the substance goes into solution per volume.

Prostaglandin G/H synthase 1, sequence (P23219 whole entry): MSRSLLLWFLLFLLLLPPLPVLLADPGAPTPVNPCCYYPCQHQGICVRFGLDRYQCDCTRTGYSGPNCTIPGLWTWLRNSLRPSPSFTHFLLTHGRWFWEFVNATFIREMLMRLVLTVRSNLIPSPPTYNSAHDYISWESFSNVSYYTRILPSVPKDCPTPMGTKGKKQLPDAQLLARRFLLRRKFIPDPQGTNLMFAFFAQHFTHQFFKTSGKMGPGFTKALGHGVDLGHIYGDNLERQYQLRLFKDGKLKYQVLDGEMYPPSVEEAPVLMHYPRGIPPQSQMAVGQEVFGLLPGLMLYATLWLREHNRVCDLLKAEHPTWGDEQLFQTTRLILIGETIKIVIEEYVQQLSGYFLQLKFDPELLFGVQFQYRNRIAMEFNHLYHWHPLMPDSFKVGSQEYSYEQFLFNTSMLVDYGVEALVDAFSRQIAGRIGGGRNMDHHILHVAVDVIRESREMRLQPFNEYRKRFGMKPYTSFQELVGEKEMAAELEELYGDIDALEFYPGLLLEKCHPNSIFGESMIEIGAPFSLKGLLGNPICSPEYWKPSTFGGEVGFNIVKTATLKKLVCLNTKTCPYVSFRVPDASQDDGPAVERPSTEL

`CC(C(=O)O)c1ccc(C[SiH](C)C)cc1` (stereo unspecified): the figures for the IC50 in series [1] and in series [3] were 8.3 µM and 26 µM, respectively. The concentration in solution in series [2] (solubility) was 83 µg/mL (≈ 373 µM). The Activity result in the series with C6 [4], with C6 [5], in the series with C6 [6], with C6 [7], with C6 [8] and with C6 [9] was “Non-Toxic” in each case. Also, the Activity result with C6 [10] is “Non-Toxic”; with C6 [11], “Toxic”; in the series on C6 [12] it was “Toxic”; in the series with C6 [13], “Toxic”.

`CC(C)Cc1ccc(C(C)C(=O)O)cc1` (stereo unspecified) [IBUPROFEN]: the Activity result in the series with C6 [4], in the series on C6 [5], in the series on C6 [6], in the series on C6 [7], in the series with C6 [8] and with C6 [9] was “Non-Toxic” in each case. Further, the Activity entry in the series with C6 [10] was “Non-Toxic”; in the series on C6 [11] it was “Toxic”.

The record behind these values is ChEMBL document CHEMBL4665811, “Sila-Ibuprofen” (J Med Chem, 2020).
